This note sets out measurements from patent US8119661B2, “Piperidine derivatives and their use as muscarinic receptor modulators” (AstraZeneca AB, priority 2007, dated 2012).

The term EC50 denotes the concentration at which the effect is half-maximal. Higher therefore signals a need for much substance.

Molecules are shown by their SMILES. Some results are limits rather than exact numbers.

For one assay, the target named is T1, cloned human M2 receptor (Homo sapiens, UniProt P08172).
T1 construct: purchased Perkin-Elmer RBHM2M; host or cells: CHO cell membranes
T1 sequence (P08172 1-466): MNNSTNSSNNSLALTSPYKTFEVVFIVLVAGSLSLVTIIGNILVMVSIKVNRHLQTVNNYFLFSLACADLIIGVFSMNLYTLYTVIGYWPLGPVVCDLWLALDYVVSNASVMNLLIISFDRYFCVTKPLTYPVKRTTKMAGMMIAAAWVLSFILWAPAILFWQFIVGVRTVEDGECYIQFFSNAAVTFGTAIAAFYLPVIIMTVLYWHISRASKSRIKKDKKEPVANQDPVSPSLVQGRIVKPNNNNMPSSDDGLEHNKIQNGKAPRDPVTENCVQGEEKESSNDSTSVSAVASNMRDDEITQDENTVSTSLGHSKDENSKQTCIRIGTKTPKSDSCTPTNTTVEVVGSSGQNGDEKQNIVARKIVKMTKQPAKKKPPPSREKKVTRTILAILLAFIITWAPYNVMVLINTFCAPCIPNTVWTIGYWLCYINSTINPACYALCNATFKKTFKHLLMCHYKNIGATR
Put plainly: hM2 receptor GTPγS binding. The format is biochemical. The conditions noted are these: CHO membranes expressing hM2, [35S]GTPγS binding. As to the method: Membranes produced from Chinese hamster ovary cells (CHO) expressing the cloned human M2 receptor (human Muscarinic receptor subtype 2, gene bank access NM_000739), are obtained from Perkin-Elmer (RBHM2M). The membranes are thawed at 37° C., passed 3 times through a 23-gauge blunt-end needle, diluted in the GTPγS binding buffer (50 mM Hepes, 20 mM NaOH, 100 mM NaCl, 1 mM EDTA, 5 mM MgCl2, pH 7.4, 100 μM DTT). The EC50, IC50 and Emax of the compounds of the invention are evaluated from 10-point dose-response curves (three fold concentration range) done in 60 μl in 384-well non-specific binding surface plate (Corning). Ten microliters from the dose-response curves plate (5× concentration) are transferred to another 384 well plate containing 25 μl of the following: 5 μg of hM2 membranes, 500 μg of Flashblue beads (Perkin-Elmer) and GDP 25 μM. An additional 15 μl containing 3.3× (60,000 dpm) of GTPγ^35S (0.4 nM final) are added to the wells resulting in a total well volume of 50 μl. Basal and maximal stimulated [^35S]GTPγS binding are determined in absence and presence of 30 μM final of acetylcholine agonist. The membranes/beads mix are pre-incubated for 15 minutes at room temperature with 25 μM GDP prior to distribution in plates (12.5 μM final). The reversal of acetylcholine-induced stimulation (2 μM final) of [^35S]GTPγS binding is used to assay the antagonist properties (IC50) of the compounds. The plates are incubated for 60 minutes at room temperature then centrifuged at 400 rpm for 5 minutes. The radioactivity (cpm) is counted in a Trilux (Perkin-Elmer).
(§1) Values of EC50, IC50 and Emax are obtained using sigmoidal fits of a non-linear curve-fitting program (XLfit version 4.2.2 Excel add-in version 4.2.2 build 18 math 1Q version 2.1.2 build 18) of percent stimulated [^35S]GTPγS binding vs. log(molar ligand). All pEC50 and pIC50 values are reported as arithmetic means±standard error of mean of ‘n’ independent experiments.
For orientation: GTPγS resists hydrolysis and so accumulates on activated G proteins.

The next assay concerns the target T2, cloned human M4 receptor (Homo sapiens, UniProt P08173).
T2 construct: purchased Perkin-Elmer RBHM4M; host or cells: CHO cell membranes
T2 sequence (P08173 1-479): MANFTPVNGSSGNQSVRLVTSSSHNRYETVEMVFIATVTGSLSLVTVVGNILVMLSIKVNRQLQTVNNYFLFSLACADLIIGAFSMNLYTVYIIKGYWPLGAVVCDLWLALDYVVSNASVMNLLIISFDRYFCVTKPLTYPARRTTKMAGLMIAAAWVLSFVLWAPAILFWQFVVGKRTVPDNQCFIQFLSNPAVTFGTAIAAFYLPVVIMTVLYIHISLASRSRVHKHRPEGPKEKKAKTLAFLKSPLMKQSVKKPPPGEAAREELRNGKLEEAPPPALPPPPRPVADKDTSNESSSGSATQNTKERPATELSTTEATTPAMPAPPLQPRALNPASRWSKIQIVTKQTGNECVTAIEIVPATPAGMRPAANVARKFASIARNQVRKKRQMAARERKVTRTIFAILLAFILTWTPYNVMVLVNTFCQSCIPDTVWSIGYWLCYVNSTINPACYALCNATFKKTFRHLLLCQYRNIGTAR
Put plainly: hM4 receptor GTPγS binding. It is filed as biochemical. Particulars: CHO membranes expressing hM4, [35S]GTPγS binding. The procedure: Membranes produced from Chinese hamster ovary cells (CHO) expressing the cloned human M4 receptor (human Muscarinic receptor subtype 4, gene bank access NM_000741), are obtained from Perkin-Elmer (RBHM4M). The membranes are thawed at 37° C., passed 3 times through a 23-gauge blunt-end needle, diluted in the GTPγS binding buffer (50 mM Hepes, 20 mM NaOH, 100 mM NaCl, 1 mM EDTA, 5 mM MgCl2, pH 7.4, 100 μM DTT). The EC50, IC50 and Emax of the compounds of the invention are evaluated from 10-point dose-response curves (three fold concentration range) done in 60 μl in 384-well non-specific binding surface plate (Corning). Ten microliters from the dose-response curves plate (5× concentration) are transferred to another 384 well plate containing 25 μl of the following: 10 μg of hM4 membranes, 500 μg of Flashblue beads (Perkin-Elmer) and GDP 40 μM. An additional 15 μl containing 3.3× (60,000 dpm) of GTPγ^35S (0.4 nM final) are added to the wells resulting in a total well volume of 50 μl. Basal and maximal stimulated [^35S]GTPγS binding are determined in absence and presence of 30 μM final of acetylcholine agonist. The membranes/beads mix are pre-incubated for 15 minutes at room temperature with 40 μM GDP prior to distribution in plates (20 μM final). The reversal of acetylcholine-induced stimulation (10 μM final) of [^35S]GTPγS binding is used to assay the antagonist properties (IC50) of the compounds. The plates are incubated for 60 minutes at room temperature then centrifuged at 400 rpm for 5 minutes. The radioactivity (cpm) is counted in a Trilux (Perkin-Elmer).
as §1

In the case of `CCOC(=O)N1CCC(C)(N2CCC(N3C(=O)N[C@H]4CCCC[C@@H]43)CC2)C1` (mixture of isomers) [Example 07, Ethyl 3-[4-[(3aS,7aS)-2-oxo-3a,4,5,6,7,7a-hexahydro-3H-benzoimidazol-1-yl]-1-piperidyl]-3-methyl-pyrrolidine-1-carboxylate], the EC50 was 2.3 µM at cloned human M2 receptor and more than 21 µM on cloned human M4 receptor.
For `CC1(N2CCC(N3C(=O)N[C@H]4CCCC[C@@H]43)CC2)CCN(C(=O)OCCF)C1` (mixture of isomers) [Example 08, 2-fluoroethyl 3-[4-[(3aS,7aS)-2-oxo-3a,4,5,6,7,7a-hexahydro-3H-benzoimidazol-1-yl]-1-piperidyl]-3-methyl-pyrrolidine-1-carboxylate] the same measures were more than 15 µM and more than 30 µM.
The corresponding values for `C#CCOC(=O)N1CCC(C)(N2CCC(N3C(=O)N[C@H]4CCCC[C@@H]43)CC2)C1` (mixture of isomers) [Example 09, Prop-2-ynyl 3-[4-[(3aS,7aS)-2-oxo-3a,4,5,6,7,7a-hexahydro-3H-benzoimidazol-1-yl]-1-piperidyl]-3-methyl-pyrrolidine-1-carboxylate] are more than 1 µM and more than 13 µM.
For `COC(=O)N1CCC(C)(N2CCC(N3C(=O)N[C@H]4CCCC[C@@H]43)CC2)C1` (mixture of isomers) [Example 10, Methyl 3-[4-[(3aS,7aS)-2-oxo-3a,4,5,6,7,7a-hexahydro-3H-benzoimidazol-1-yl]-1-piperidyl]-3-methyl-pyrrolidine-1-carboxylate] the same measures were more than 4 µM and more than 30 µM.
For `CCOC(=O)N1CCC(C)(N2CCC(N3C(=O)N[C@@H]4CCCC[C@H]43)CC2)C1` (mixture of isomers) [Example 11, Ethyl 3-[4-[(3aR,7aR)-2-oxo-3a,4,5,6,7,7a-hexahydro-3H-benzoimidazol-1-yl]-1-piperidyl]-3-methyl-pyrrolidine-1-carboxylate], the EC50 is 2.9 µM on cloned human M2 receptor and more than 30 µM at cloned human M4 receptor.
The corresponding values for `CCOC(=O)N1CCC(C)(N2CCC(N3C(=O)N[C@@H]4CCCC[C@@H]43)CC2)CC1` (relative stereo) [Example 12, Ethyl 4-[4-[(cis)-2-oxo-3a,4,5,6,7,7a-hexahydro-3H-benzoimidazol-1-yl]-1-piperidyl]-4-methyl-piperidine-1-carboxylate] are 0.13 µM and more than 4 µM.
For `CC(C)OC(=O)N1CCC(C)(N2CCC(N3C(=O)N[C@@H]4CCCC[C@@H]43)CC2)CC1` (relative stereo) [Example 13, Propan-2-yl 4-[4-[(cis)-2-oxo-3a,4,5,6,7,7a-hexahydro-3H-benzoimidazol-1-yl]-1-piperidyl]-4-methyl-piperidine-1-carboxylate] the same measures were more than 30 µM and more than 30 µM.
Consider `CC#CCOC(=O)N1CCC(C)(N2CCC(N3C(=O)N[C@H]4CCCC[C@@H]43)CC2)C1` (single isomer, unassigned) [Example 19], for which the concentration for a half-maximal effect (EC50) on cloned human M2 receptor is 0.204 µM; at cloned human M4 receptor, 0.919 µM.
For `CCOC(=O)N1CCC(C)(N2CCC(N3C(=O)N[C@H]4CCCC[C@@H]43)CC2)C1` (single isomer, unassigned) [Example 21] the same measures were 4.87 µM and more than 90 µM.
For `CCOC(=O)N1CCC(C)(N2CCC(N3C(=O)N[C@H]4CCCC[C@@H]43)CC2)C1` (single isomer, unassigned) [Example 22], the EC50 was found to be 1.17 µM at cloned human M2 receptor and 3.47 µM at cloned human M4 receptor.
The corresponding values for `CCOC(=O)N1CCC(C)(N2CCC(N3C(=O)C[C@@H]4CCCC[C@H]43)CC2)C1` (stereo in doubt) [Example 23, Ethyl 3-[4-[(3aS,7aR)-2-oxo-3a,4,5,6,7,7a-hexahydro-3H-indol-1-yl]-1-piperidyl]-3-methyl-pyrrolidine-1-carboxylate] are 2.68 µM and 17 µM.
Turning to `CCOC(=O)N1CCC(C)(N2CCC(N3C(=O)N[C@H]4CCCC[C@@H]43)CC2)CC1` [Example 01, Ethyl 4-[4-[(3aS,7aS)-2-oxo-3a,4,5,6,7,7a-hexahydro-3H-benzoimidazol-1-yl]-1-piperidyl]-4-methyl-piperidine-1-carboxylate], the EC50 was 0.045 µM on cloned human M2 receptor and more than 1.2 µM at cloned human M4 receptor.
For `CC(C)OC(=O)N1CCC(C)(N2CCC(N3C(=O)N[C@H]4CCCC[C@@H]43)CC2)CC1` [Example 02, Propan-2-yl 4-[4-[(3aS,7aS)-2-oxo-3a,4,5,6,7,7a-hexahydro-3H-benzoimidazol-1-yl]-1-piperidyl]-4-methyl-piperidine-1-carboxylate] the same measures were more than 0.2 µM and more than 30 µM.
For `CC1(N2CCC(N3C(=O)N[C@H]4CCCC[C@@H]43)CC2)CCN(C(=O)C2CC2)CC1` [Example 03, (3aS,7aS)-1-[1-[1-(cyclopropanecarbonyl)-4-methyl-4-piperidyl]-4-piperidyl]-3a,4,5,6,7,7a-hexahydro-3H-benzoimidazol-2-one] the same measures were more than 1.6 µM and more than 6.5 µM.
`CCOC(=O)N1CCC(C)(N2CCC(N3C(=O)N[C@@H]4CCCC[C@H]43)CC2)CC1` [Example 04, Ethyl 4-[4-[(3aR,7aR)-2-oxo-3a,4,5,6,7,7a-hexahydro-3H-benzoimidazol-1-yl]-1-piperidyl]-4-methyl-piperidine-1-carboxylate]: the EC50 is 0.48 µM at cloned human M2 receptor and more than 6.1 µM at cloned human M4 receptor.
The corresponding values for `CC(C)OC(=O)N1CCC(C)(N2CCC(N3C(=O)N[C@@H]4CCCC[C@H]43)CC2)CC1` [Example 05, Propan-2-yl 4-[4-[(3aR,7aR)-2-oxo-3a,4,5,6,7,7a-hexahydro-3H-benzoimidazol-1-yl]-1-piperidyl]-4-methyl-piperidine-1-carboxylate] are more than 14 µM and more than 30 µM.
The corresponding values for `CC1(N2CCC(N3C(=O)N[C@@H]4CCCC[C@H]43)CC2)CCN(C(=O)C2CC2)CC1` [Example 06, (3aR,7aR)-1-[1-[1-(cyclopropanecarbonyl)-4-methyl-4-piperidyl]-4-piperidyl]-3a,4,5,6,7,7a-hexahydro-3H-benzoimidazol-2-one] are more than 30 µM and more than 30 µM.
